# Read-outs that look alike come from different tables or passages of the source.
# How the values were obtained:
# [1] = 105° C
# Description: The susceptibility of the peroxycarbonate to heat decomposition can be ascertained from its half life and the foaming temperature thereof.
# [2] = Foaming decomposition temperature; assay type: physicochemical
# [3] = prior art peroxide, peroxy group in the copolymer; cited from earlier work
# [4] = prior art peroxide; cited from earlier work
Compound,Half life ([1]; solvent benzene) [h],foaming decomposition temperature [2] [°C],"decomposition activity, in words [3]",Half life ([1]; solvent toluene) [h],"storage stability, in words [4]"
t-hexylperoxy allyl carbonate,3.8,107.3,,,
"C=CCOC(=O)OOC(C)(C)CC(C)(C)C [1,1,3,3-tetramethylbutylperoxy allyl carbonate]",1.4,103.5,,,
C/C=C/C(=O)OOC(C)(C)C [t-butylperoxycrotonate],,,active at low temperature,,
"C=C(C)COC(=O)OOC(C)(C)CC(C)(C)C [1,1,3,3-tetramethylbutylperoxy methallyl carbonate]",1.1,106.5,,,
C=C(C)COC(=O)OOC(C)(C)C [t-butylperoxy methallyl carbonate],2.9,117.5,,4.9,
"CC(C)C(=O)OOC(C)(C)C [t-butyl peroxy isobutyrate, t-butyl peroxyisobutyrate, reference compound]",0.37,,,,
C=CCOC(=O)OOC(C)(C)C [t-butylperoxy allyl carbonate],3.9,117.5,,6.9,
"CC(C)OC(=O)OOC(C)(C)C [t-butylperoxy isopropyl carbonate, reference compound]",4.1,,,,
butyl peroxymethacrylate,,,,,not stable during storage
t-hexylperoxy methallyl carbonate,2.9,115.5,,,

# From patent US4119657A, “Novel peroxycarbonate” (priority 1976, dated 1978)
